# In patent US9233983B2, “Substituted hetero-bicyclic compounds, compositions and medicinal applications thereof” (ADVINUS THERAPEUTICS LIMITED, priority 2012, dated 2016):
# Molecular target: human Bruton's Tyrosine Kinase (Btk) (Homo sapiens (Human), UniProt Q06187)
# Assay: Recombinant Human Bruton's Tyrosine Kinase (Btk) Inhibition Assay (HTRF KinEASE-TK)
# Format: biochemical
# Conditions: 20 ng/ml rhBtk, 77 μM ATP (KM), 1 μM TK-Biotin substrate, 90 min; read-out: hBTK IC50
# Chain of human Bruton's Tyrosine Kinase (Btk) (Q06187 whole entry): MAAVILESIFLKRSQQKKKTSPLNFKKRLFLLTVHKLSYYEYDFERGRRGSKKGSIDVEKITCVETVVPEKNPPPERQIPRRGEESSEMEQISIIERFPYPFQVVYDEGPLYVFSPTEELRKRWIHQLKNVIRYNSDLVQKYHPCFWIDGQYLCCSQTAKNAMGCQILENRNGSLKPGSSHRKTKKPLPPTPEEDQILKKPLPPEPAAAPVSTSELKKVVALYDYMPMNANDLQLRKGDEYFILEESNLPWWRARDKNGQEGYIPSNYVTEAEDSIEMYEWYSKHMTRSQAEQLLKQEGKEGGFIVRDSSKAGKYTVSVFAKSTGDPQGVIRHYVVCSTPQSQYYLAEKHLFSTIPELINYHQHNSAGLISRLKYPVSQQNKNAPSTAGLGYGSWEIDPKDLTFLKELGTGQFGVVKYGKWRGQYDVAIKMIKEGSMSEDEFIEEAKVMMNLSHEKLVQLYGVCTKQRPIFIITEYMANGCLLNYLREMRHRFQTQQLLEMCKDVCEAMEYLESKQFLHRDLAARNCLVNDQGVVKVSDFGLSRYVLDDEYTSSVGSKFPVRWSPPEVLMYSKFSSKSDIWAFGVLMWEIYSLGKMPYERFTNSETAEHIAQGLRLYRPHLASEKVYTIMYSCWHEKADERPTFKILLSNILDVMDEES
row,IC50,Structure (SMILES)
1,11 nM,"CN1CC=C(c2ccc(-c3cc4c(-c5cccc(N6CCOc7cc(C8CC8)ccc7C6=O)c5CO)ccnc4[nH]3)cc2)CC1 [Example C-4, 8-cyclopropyl-4-[2-(hydroxymethyl)-3-[2-[4-(1-methyl-3,6-dihydro-2H-pyridin-4-yl)phenyl]-1H-pyrrolo[2,3-b]pyridin-4-yl]phenyl]-2,3-dihydro-1,4-benzoxazepin-5-one]"
2,2.9 nM,"O=C1c2c(F)cc(C3CC3)cc2OCCN1c1cccc(-c2ccnc3[nH]c(-c4ccc(OCCN5CCOCC5)cn4)cc23)c1CO [Example Q-1, 8-cyclopropyl-6-fluoro-4-[2-(hydroxymethyl)-3-[2-[5-(2-morpholinoethoxy)-2-pyridyl]-1H-pyrrolo[2,3-b]pyridin-4-yl]phenyl]-2,3-dihydro-1,4-benzoxazepin-5-one]"
3,35 nM,"CN1CCN(Cc2ccc(-c3cc4c(-c5cccc(N6CCOc7cc(C8CC8)cnc7C6=O)c5CO)ccnc4[nH]3)nc2)CC1 [Example I-3, 8-cyclopropyl-4-[2-(hydroxymethyl)-3-[2-[5-[(4-methylpiperazin-1-yl)methyl]-2-pyridyl]-1H-pyrrolo[2,3-b]pyridin-4-yl]phenyl]-2,3-dihydropyrido[2,3-f][1,4]oxazepin-5-one]"
4,42 nM,"Cc1c(-c2ncnc3[nH]c(-c4ccc(C(=O)N5CCCC(O)C5)cc4)cc23)cccc1N1CCOc2cc(C3CC3)ccc2C1=O (stereo not drawn) [Example K-3, 8-cyclopropyl-4-[3-[6-[4-(3-hydroxypiperidine-1-carbonyl)phenyl]-7H-pyrrolo[2,3-d]pyrimidin-4-yl]-2-methyl-phenyl]-2,3-dihydro-1,4-benzoxazepin-5-one]"
5,1.3 nM,"O=C1c2c(F)cc(C3CC3)cc2OCCN1c1cc(F)cc(-c2ccnc3[nH]c(-c4ccc(CN5CCN(C6COC6)CC5)cn4)cc23)c1CO [Example I-17, 8-cyclopropyl-6-fluoro-4-[5-fluoro-2-(hydroxymethyl)-3-[2-[5-[[4-(oxetan-3-yl)piperazin-1-yl]methyl]-2-pyridyl]-1H-pyrrolo[2,3-b]pyridin-4-yl]phenyl]-2,3-dihydro-1,4-benzoxazepin-5-one]"
6,208 nM,"Cc1c(-c2ncnc3[nH]c(-c4ccc(C(=O)N5CCN(C)CC5)cc4)cc23)cccc1N1CCc2cc(C3CC3)ccc2C1=O [Example K-18, 6-cyclopropyl-2-[2-methyl-3-[6-[4-(4-methylpiperazine-1-carbonyl)phenyl]-7H-pyrrolo[2,3-d]pyrimidin-4-yl]phenyl]-3,4-dihydroisoquinolin-1-one]"
7,190 nM,"Cc1c(-c2ccnc3[nH]c(-c4ccc(CN5CCN(C)CC5)c(F)c4)cc23)cccc1N1CCOc2cc(C3CC3)ccc2C1=O [Example B-19, 8-cyclopropyl-4-[3-[2-[3-fluoro-4-[(4-methylpiperazin-1-yl)methyl]phenyl]-lH-pyrrolo[2,3-b]pyridin-4-yl]-2-methyl-phenyl]-2,3-dihydro-1,4-benzoxazepin-5-one]"
8,254 nM,"Cc1c(-c2ncnc3[nH]c(-c4ccc(CN5CCNC(=O)C5)cc4)cc23)cccc1N1CCc2cc(C3CC3)ccc2C1=O [Example B-11, 6-cyclopropyl-2-[2-methyl-3-[6-[4-[(3-oxopiperazin-1-yl)methyl]phenyl]-7H-pyrrolo[2,3-d]pyrimidin-4-yl]phenyl]-3,4-dihydroisoquinolin-1-one]"
9,181 nM,"Cc1c(-c2nc(N)nc3[nH]c(-c4ccc(N5CCOCC5)nc4)cc23)cccc1N1CCOc2cc(C3CC3)ccc2C1=O [Example N-2, 4-[3-[2-amino-6-(6-morpholino-3-pyridyl)-7H-pyrrolo[2,3-d]pyrimidin-4-yl]-2-methyl-phenyl]-8-cyclopropyl-2,3-dihydro-1,4-benzoxazepin-5-one]"
10,825 nM,"Cc1c(-c2ncnc3[nH]c(-c4cccc(CN5CCOCC5)c4)cc23)cccc1N1CCc2cc(C3CC3)ccc2C1=O [Example A-8, 6-cyclopropyl-2-[2-methyl-3-[6-[3-(morpholinomethyl)phenyl]-7H-pyrrolo[2,3-d]pyrimidin-4-yl]phenyl]-3,4-dihydroisoquinolin-1-one]"
11,41 nM,"Cc1c(-c2ncnc3[nH]c(-c4ccc(C(=O)N5CC(O)C5)cc4)cc23)cccc1N1CCc2cc(C3CC3)ccc2C1=O [Example K-17, 6-cyclopropyl-2-[3-[6-[4-(3-hydroxyazetidine-1-carbonyl)phenyl]-7H-pyrrolo[2,3-d]pyrimidin-4-yl]-2-methyl-phenyl]-3,4-dihydroisoquinolin-1-one]"
12,13 nM,"Cc1c(-c2ncnc3[nH]c(-c4cnn(C5CCN(C)CC5)c4)cc23)cccc1N1CCOc2cc(C3CC3)ccc2C1=O [Example D-2, 8-cyclopropyl-4-[2-methyl-3-[6-[1-(1-methyl-4-piperidyl)pyrazol-4-yl]-7H-pyrrolo[2,3-d]pyrimidin-4-yl]phenyl]-2,3-dihydro-1,4-benzoxazepin-5-one]"
13,> 1000 nM,"Cc1c(-c2ncnc3[nH]c(-c4ccc(N5CCOCC5)cc4)cc23)cccc1N1CCOc2cc(C3CC3)ccc2C1=O [Example M-3, 8-cyclopropyl-4-[2-methyl-3-[6-(4-morpholinophenyl)-7H-pyrrolo[2,3-d]pyrimidin-4-yl]phenyl]-2,3-dihydro-1,4-benzoxazepin-5-one]"
14,618 nM,"CS(=O)(=O)N1CC=C(c2cc3c(-c4ccnc(N5CCOc6cc(C7CC7)cc(F)c6C5=O)c4CO)ccnc3[nH]2)CC1 [Example P-25, 8-cyclopropyl-6-fluoro-4-[3-(hydroxymethyl)-4-[2-(1-methylsulfonyl-3,6-dihydro-2H-pyridin-4-yl)-1H-pyrrolo[2,3-b]pyridin-4-yl]-2-pyridyl]-2,3-dihydro-1,4-benzoxazepin-5-one]"
15,> 1000 nM,"Cc1c(-c2ncnc3[nH]c(C4=CCCNC4)cc23)cccc1N1CCOc2cc(C3CC3)ccc2C1=O [Example P-4, 8-cyclopropyl-4-[2-methyl-3-[6-(1,2,3,6-tetrahydropyridin-5-yl)-7H-pyrrolo[2,3-d]pyrimidin-4-yl]phenyl]-2,3-dihydro-1,4-benzoxazepin-5-one]"
16,133 nM,"Cc1c(-c2ncnc3[nH]c(-c4ccc(C(=O)N5CCCC(C(=O)O)C5)cc4)cc23)cccc1N1CCOc2cc(C3CC3)ccc2C1=O (stereo not drawn) [Example K-13, 1-[4-[4-[3-(8-cyclopropyl-5-oxo-2,3-dihydro-1,4-benzoxazepin-4-yl)-2-methyl-phenyl]-7H-pyrrolo[2,3-d]pyrimidin-6-yl]benzoyl]piperidine-3-carboxylic acid]"
17,43 nM,"CC1(O)CN(C(=O)c2ccc(-c3cc4c(-c5cccc(N6CCOc7cc(C8CC8)cc(F)c7C6=O)c5CO)ccnc4[nH]3)nc2)C1 [Example L-4, 8-cyclopropyl-6-fluoro-4-[2-(hydroxymethyl)-3-[2-[5-(3-hydroxy-3-methyl-azetidine-1-carbonyl)-2-pyridyl]-1H-pyrrolo[2,3-b]pyridin-4-yl]phenyl]-2,3-dihydro-1,4-benzoxazepin-5-one]"
18,7 nM,"CN1CCN(Cc2ccc(-c3cc4c(-c5cccc(-n6ccc7cc(C8CC8)ccc7c6=O)c5CO)ncnc4[nH]3)cc2)CC1 [Example B-8, 6-cyclopropyl-2-[2-(hydroxymethyl)-3-[6-[4-[(4-methylpiperazin-1-yl)methyl]phenyl]-7H-pyrrolo[2,3-d]pyrimidin-4-yl]phenyl]isoquinolin-1-one]"
